Reference: patent publication US10781229B2, “Tris- or neopentyl glycol-based amphiphiles and uses thereof” (Industry-University Cooperation Foundation Hanyang …, priority 2015, dated 2020)
“Also recorded” adds a separate entry of the source.

Biological target: T1, uric acid-xanthine/H+ symporter (UapA) (Emericella nidulans, UniProt Q07307, G411V)
T1 construct: GFP; made in house; host or cells: Saccharomyces cerevisiae FGY217
Assay: UapA structural stability by CPM assay
Parameters: species or system Aspergillus nidulans
Conditions: 40° C.
Description: Experiments to measure the structural stability of a uric acid-xanthine/H+ symporter (UapA) due to TDTs or NDTs in an aqueous solution were conducted. The structural stability of UapA was measured using CPM assay, and the concentrations of TDTs, NDTs, and DDM concentration were CMC+0.04% by weight.
In particular, UapA protein is a uric acid-xanthine/H+ symporter in Aspergillus nidulans). The stability of the protein was measured using N-[4-(7-Diethylamino-4-methyl-3-coumarinyl)phenyl]maleimide (CPM), as a sulfhydryl-specific fluorophore, by means of a fluorescence spectrophotometer. A free sulfhydryl group of a cysteine residue is present within the center of the protein but may be present near a solvent due to unfolding of the protein. CPM becomes fluorescent by reaction with free thiol and, accordingly, functions as a sensor of unfolding. […] The reaction was monitored at 40° C. for 120 minutes by means of a microplate spectrofluorometer. So as to calculate a ratio of folded proteins relative to remaining proteins after being maintained at 40° C. for […], relative maximum fluorescence was used. […]

T1 sequence (Q07307 12-574 G411V): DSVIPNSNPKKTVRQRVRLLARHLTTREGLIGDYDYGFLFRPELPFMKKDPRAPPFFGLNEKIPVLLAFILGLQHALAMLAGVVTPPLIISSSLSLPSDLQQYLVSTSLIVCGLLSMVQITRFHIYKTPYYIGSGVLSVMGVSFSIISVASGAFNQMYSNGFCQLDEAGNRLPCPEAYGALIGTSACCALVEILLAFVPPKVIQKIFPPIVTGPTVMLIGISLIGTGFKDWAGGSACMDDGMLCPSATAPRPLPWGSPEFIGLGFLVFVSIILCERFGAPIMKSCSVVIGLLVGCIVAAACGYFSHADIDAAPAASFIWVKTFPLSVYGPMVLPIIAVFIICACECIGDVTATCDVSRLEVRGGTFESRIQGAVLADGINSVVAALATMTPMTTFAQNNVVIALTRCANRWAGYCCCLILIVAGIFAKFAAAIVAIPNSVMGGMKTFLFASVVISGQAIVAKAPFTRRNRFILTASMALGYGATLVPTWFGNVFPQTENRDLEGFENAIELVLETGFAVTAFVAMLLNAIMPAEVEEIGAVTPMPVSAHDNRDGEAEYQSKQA

CCCCCCCCCCCC(CCCCCCCCCCC)COCC(CO[C@@H]1OC(CO)[C@@H](O)C(O)C1O)(CO[C@@H]1OC(CO)[C@@H](O)C(O)C1O)CO[C@@H]1OC(CO)[C@@H](O)C(O)C1O (some centres unmarked) [NDT-C11]
UapA protein structural stability (amount of folded protein) (CMC+0.04% by weight): most excellent | UapA protein structural stability (amount of folded protein) (CMC+0.2% by weight): most excellent; also recorded: superior to those of MNG-3
